# Experimental data taken from US20120022045A1, “BRIDGED COMPOUNDS AS HIV INTEGRASE INHIBITORS” (priority 2009, published 2012).
# Like-named read-outs stand apart in the source and are kept apart here.
# Assays:
# Format in all cases: cell-based
# [1] = tested on: HIV-1 integrase mutant virus N155H; test: Single cycle infectivity assay in HeLa P4-2 cells, integrase mutant N155H virus; conditions: fold shift in IC50 versus wild type IIIB
# Protocol: (§1) An assay for measuring the inhibition of acute HIV-1 infection with HeLa P4-2 cells in a single cycle infectivity assay was conducted using methods described in Joyce et al., J. Biol. Chem. 2002, 277: 45811, Hazuda et al., Science 2000, 287: 646, and Kimpton et al, J. Virol. 1992, 66: 2232. Proviral plasmids encoding viruses containing specific mutations in the integrase gene (N155H, Q148R, Y143R, E92Q, or G140S/Q148H) were generated by site-directed mutagenesis, and viruses were produced by transfecting 293T cells with the appropriate proviral plasmids.
# HIV-1 wild type IIIB = test: Single cycle infectivity assay in HeLa P4-2 cells, wild type virus
# Protocol: as §1
# HIV-1 = test: Inhibition of acute HIV-1 infection of T-lymphoid cells (spread assay); conditions: 10% FBS, read-out: IC95 (nM) in the presence of 10% FBS
# Protocol: Assays for the inhibition of acute HIV-1 infection of T-lymphoid cells were conducted in accordance with Vacca, J. P. et al., Proc. Natl. Acad. Sci. USA 1994, 91: 4096.
# [2] = tested on: HIV-1 integrase mutant virus Y143R; test: Single cycle infectivity assay in HeLa P4-2 cells, integrase mutant Y143R virus; conditions: fold shift in IC50 versus wild type IIIB
# Protocol: as §1
# [3] = tested on: HIV-1 integrase mutant virus Q148R; test: Single cycle infectivity assay in HeLa P4-2 cells, integrase mutant Q148R virus; conditions: fold shift in IC50 versus wild type IIIB
# Protocol: as §1
# [4] = tested on: HIV-1 integrase mutant virus G140S/Q148H; test: Single cycle infectivity assay in HeLa P4-2 cells, integrase mutant G140S/Q148H virus; conditions: fold shift in IC50 versus wild type IIIB
# Protocol: as §1
# [5] = Human immunodeficiency virus 1, IIIB, HeLaP4-2, wild type IIIB
# [6] = Human immunodeficiency virus 1, T-lymphoid
SMILES,N155H (shift) [1],IC50 (HIV-1 wild type IIIB; [5]),IC95 (HIV-1; [6]),Y143R (shift) [2],Q148R (shift) [3],G140S/Q148H (shift) [4],IC50 (HIV-1 wild type IIIB; wild type IIIB),IC95 (HIV-1)
"CNC(=O)C(=O)N(C)C12CCC(OC1)C(C)n1c2nc(C(=O)NCc2ccc(F)cc2)c(O)c1=O (single isomer, unassigned) [Example 28A, N-(4-{[(4-fluorobenzyl)amino]carbonyl}-5-hydroxy-8-methyl-6-oxo-10-oxa-3,7-diazatricyclo[7.2.2.0^2,7]trideca-2,4-dien-1-yl)-N,N′-dimethylethanediamide]",3 fold,46 nM,17.8 nM,1 fold,1 fold,4 fold,,
"CN(C)C(=O)C(=O)N(C)C12CCC(C)(Cn3c1nc(C(=O)NCc1ccc(F)cc1)c(O)c3=O)OC2 (single isomer, unassigned) [Example 21B]",13 fold,,,3 fold,11 fold,>93 fold,18 nM,21.0 nM
"CCN(C(=O)C(=O)N(C)C)C12CCC(Cn3c1nc(C(=O)NCc1ccc(F)c(C)c1)c(O)c3=O)OC2 (single isomer, unassigned) [Example 18B, N-ethyl-N-(4-{[(4-fluoro-3-methylbenzyl)amino]carbonyl}-5-hydroxy-6-oxo-10-oxa-3,7-diazatricyclo[7.2.2.0^2,7]trideca-2,4-dien-1-yl)-N,N-dimethylethanediamide]",2 fold,10 nM,10.7 nM,2 fold,2 fold,19 fold,,
"CCN(C(=O)C(=O)N(C)C)C12CCC(OC)(CC1)Cn1c2nc(C(=O)NCc2ccc(F)cc2)c(O)c1=O [Example 16, N-Ethyl-N-(4-{[(4-fluorobenzyl)amino]carbonyl}-5-hydroxy-9-methoxy-6-oxo-3,7-diazatricyclo[7.2.2.0^2,7]trideca-2,4-dien-1-yl)-N,N′-dimethylethanediamide]",3 fold,15 nM,11.3 nM,1 fold,1 fold,15 fold,,
"CN(C)C(=O)C(=O)N(C)C12CCC(C)(Cn3c1nc(C(=O)NCc1ccc(F)cc1)c(O)c3=O)OC2 (single isomer, unassigned) [Example 21A]",3 fold,20 nM,20 nM,1 fold,3 fold,73 fold,,
"CNC(=O)C(=O)N(C)C12CCC(OC1)C(C)n1c2nc(C(=O)NCc2ccc(F)cc2)c(O)c1=O (single isomer, unassigned) [Example 28B, N-(4-{[(4-fluorobenzyl)amino]carbonyl}-5-hydroxy-8-methyl-6-oxo-10-oxa-3,7-diazatricyclo[7.2.2.0^2,7]trideca-2,4-dien-1-yl)-N,N′-dimethylethanediamide]",,,,,,,,15.9 nM
"CCC1C2CCC(N(C)C(=O)C(=O)N(C)C)(CO2)c2nc(C(=O)NCc3ccc(F)cc3)c(O)c(=O)n21 (single isomer, unassigned) [Example 25B, N-(8-ethyl-4-{[(4-fluorobenzyl)amino]carbonyl}-5-hydroxy-6-oxo-10-oxa-3,7-diazatricyclo[7.2.2.0^2,7]trideca-2,4-dien-1-yl)-N,N′,N′-trimethylethanediamide]",1 fold,,,1 fold,1 fold,1 fold,8 nM,7.9 nM
"CCC1C2CCC(N(C)C(=O)C(=O)N(C)C)(CO2)c2nc(C(=O)NCc3ccc(F)cc3)c(O)c(=O)n21 (single isomer, unassigned) [Example 25C, N-(8-ethyl-4-{[(4-fluorobenzyl)amino]carbonyl}-5-hydroxy-6-oxo-10-oxa-3,7-diazatricyclo[7.2.2.0^2,7]trideca-2,4-dien-1-yl)-N,N′,N′-trimethylethanediamide]",6 fold,,,3 fold,4 fold,88 fold,6 nM,10.8 nM
"Cc1nnc(C(=O)N(C)C23CCC(Cn4c2nc(C(=O)NCc2ccc(F)cc2)c(O)c4=O)C3)o1 (stereo not drawn) [Example 7, N-(4-Fluorobenzyl)-3-hydroxy-10-{methyl[(5-methyl-1,3,4-oxadiazol-2-yl)carbonyl]amino}-4-oxo-4,6,7,8,9,10-hexahydro-7,10-methanopyrimido[1,2-a]azepine-2-carboxamide]",3 fold,80 nM,9.6 nM,2 fold,4 fold,44 fold,,
"CN(C)C(=O)C(=O)N(C)C12CCC(Cn3c1nc(C(=O)NCc1ccc(F)cc1)c(O)c3=O)OC2 (single isomer, unassigned) [Example 23B]",136 fold,,,7 fold,253 fold,229 fold,5 nM,23.6 nM
"CCN(C(=O)C(=O)N(C)C)C12CCC(Cn3c1nc(C(=O)NCc1ccc(F)c(C)c1)c(O)c3=O)OC2 (stereo not drawn) [Example 18A, N-ethyl-N-(4-{[(4-fluoro-3-methylbenzyl)amino]carbonyl}-5-hydroxy-6-oxo-10-oxa-3,7-diazatricyclo[7.2.2.0^2,7]trideca-2,4-dien-1-yl)-N,N-dimethylethanediamide]",8 fold,19 nM,9.8 nM,2 fold,7 fold,>88 fold,,
"CC1C2CCC(N(C)C(=O)C(=O)N(C)C)(CO2)c2nc(C(=O)NCc3ccc(F)cc3)c(O)c(=O)n21 (single isomer, unassigned) [Example 27B, N-(4-{[(4-fluorobenzyl)amino]carbonyl}-5-hydroxy-8-methyl-6-oxo-10-oxa-3,7-diazatricyclo[7.2.2.0^2,7]trideca-2,4-dien-1-yl)-N,N′,N′-trimethylethanediamide]",20 fold,,,7 fold,9 fold,>70 fold,24 nM,27.3 nM
"CCC12CCC(N(C)C(=O)C(=O)N(C)C)(CO1)c1nc(C(=O)NCc3ccc(F)cc3)c(O)c(=O)n1C2 (single isomer, unassigned) [Example 20A, N-(9-ethyl-4-{[(4-fluorolbenzyl)amino]carbonyl}-5-hydroxy-6-oxo-10-oxa-3,7-diazatricyclo[7.2.2.0^2,7]trideca-2,4-dien-1-yl)-N,N′,N′-trimethylethanediamide]",3 fold,,11 nM,1 fold,2 fold,21 fold,8 nM,
"CN(C(=O)C(=O)N1CCOCC1)C12CCC(Cn3c1nc(C(=O)NCc1ccc(F)cc1)c(O)c3=O)C2 (stereo not drawn) [Example 9, N-(4-Fluorobenzyl)-3-hydroxy-10-{methyl[morpholin-4-yl(oxo)acetyl]amino}-4-oxo-4,6,7,8,9,10-hexahydro-7,10-methanopyrimido[1,2-a]azepine-2-carboxamide]",5 fold,43 nM,15 nM,2 fold,11 fold,40 fold,,
"CC1(C)OCCn2c1nc(C(=O)NCc1ccc(F)cc1)c(O)c2=O [Compound Z, N-[(4-fluorophenyl)methyl]-3-hydroxy-9,9-dimethyl-4-oxo-4,6,7,9-tetrahydro-6H-pyrimido[2,1-c][1,4]oxazine-2-carboxamide, reference compound]",32 fold,,,1 fold,>34 fold,>34 fold,34 nM,
"CN(C)C(=O)C(=O)N(C)C1CCCCn2c1nc(C(=O)NCc1ccc(F)cc1)c(O)c2=O (stereo not drawn) [Compound Y, (—)N-(2-{[(4-fluorobenzyl)amino]-carbonyl}-3-hydroxy-4-oxo-4,6,7,8,9,10-hexahydropyrimido[1,2-a]azepin-10-yl)-N,N′,N′-trimethylethanediamide, reference compound]",15 fold,16 nM,,1 fold,26 fold,410 fold,,
"Cc1nnc(C(=O)NC(C)(C)c2nc(C(=O)NCc3ccc(F)cc3)c(O)c(=O)n2C)o1 [Compound X, raltegravir, reference compound]",13 fold,52 nM,,15 fold,22 fold,400 fold,,
"CC1C2CCC(NC(=O)C(=O)N(C)C)(CO2)c2nc(C(=O)NCc3ccc(F)cc3)c(O)c(=O)n21 (single isomer, unassigned) [Example 29B, N′-(4-{[(4-Fluorobenzyl)amino]carbonyl}-5-hydroxy-8-methyl-6-oxo-10-oxa-3,7-diazatricyclo[7.2.2.0^2,7]trideca-2,4-dien-1-yl)-N-dimethylethanediamide]",1 fold,,,2 fold,3 fold,2 fold,69 nM,
